Where a name gives a salt, the structure may show the parent alone.
Tested on: HIV-infected cells
Test: p24 protein production inhibiting effect (in vitro), quantitation of p24 protein by ELISA
Format: cell-based
Conditions: for content of p24 protein, Day 1: control 569542; for content of p24 protein, Day 5: control 902226; for content of p24 protein, Day 0: control 0
Protocol: p24 Protein Production Inhibiting Effect (in vitro)
Quantitation of p24 protein was conducted by ELISA.
HIV-infected cells were lysed in a lysis buffer, and were poured in predetermined constant aliquots into the individual wells of a 96-well microplate. Subsequent to adsorption of an antigen, a solution of a biotinylated anti-p24 monoclonal antibody was added. A streptavidin-labeled peroxidase was added, followed by the addition of a substrate for staining. One, three and five days later or 2 and 4 days later, a terminating solution was added to terminate the reaction. Concerning each of the wells, the absorbance at 450 nm was measured to determine the content of p24 protein in the well.

[1] = Table 5, compound at 1.60 µg/mℓ, control 349386
[2] = Table 5, compound at 1.60 µg/mℓ, control 435119

## O=S(=O)(c1cccc2c(O)nccc12)N1CCCNCC1 [Example 6, 1-(1-Hydroxy-5-isoquinolinesulfonyl)hexahydro-1H-1,4-diazepine·monohydrochloride]
Table 1, compound at 20 µg/m
  content of p24 protein, Day 1: 551489 pg/mL
  content of p24 protein, Day 5: 698489 pg/mL
Table 1, compound at 20 µg/m, control 881594
  content of p24 protein, Day 2: 645621 pg/mL

## CCCCCCOc1ncc(C)c2c(S(=O)(=O)N3CCCNCC3)cccc12 [Example 14, 1-(1-n-Hexyloxy-4-methyl-5-isoquinolinesulfonyl)hexahydro-1H-1,4-diazepine]
Table 2, compound at 8 µg/mℓ
  content of p24 protein, Day 0: 0 pg/m
Table 2, compound at 8 µg/mℓ, control 46732
  content of p24 protein, Day 2: 1022 pg/m
Table 2, compound at 8 µg/mℓ, control 104484
  content of p24 protein, Day 4: 0 pg/m

## CCCCCCCCOc1ncc(C)c2c(S(=O)(=O)N3CCCNCC3)cccc12 [Example 20, 1-(4-Methyl-1-n-octyloxy-5-isoquinolinesulfonyl)hexahydro-1H-1,4-diazepine]
Table 4, compound at 0.32 µg/mℓ, control 38991
  content of p24 protein, Day 4: 31250 pg/mL
Table 4, compound at 0.32 µg/mℓ, control 58304.5
  content of p24 protein, Day 2: 31250 pg/mL

## CCCCCCCCCCCCCCCCCCOc1ncc(C)c2c(S(=O)(=O)N3CCCNCC3)cccc12 [Example 21, 1-(4-Methyl-1-n-octadecyloxy-5-isoquinolinesulfonyl)hexahydro-1H-1,4-diazepine]
Table 4, compound at 0.16 µg/mℓ, control 38991
  content of p24 protein, Day 4: 31250 pg/mL
Table 4, compound at 0.16 µg/mℓ, control 58304.5
  content of p24 protein, Day 2: 31250 pg/mL

## Cc1cnc(OC(C)C)c2cccc(S(=O)(=O)N3CCCNCC3)c12 [Example 22, 1-(1-Isopropyloxy-4-methyl-5-isoquinolinesulfonyl)hexahydro-1H-1,4-diazepine]
Table 4, compound at 1.60 µg/mℓ, control 38991
  content of p24 protein, Day 4: 20897 pg/mL
Table 4, compound at 1.60 µg/mℓ, control 58304.5
  content of p24 protein, Day 2: 17405 pg/mL

## CCCCC(CC)COc1ncc(C)c2c(S(=O)(=O)N3CCCNCC3)cccc12 (stereo not shown) [Example 25, 1-(1-(2-Ethyl)hexyloxy-4-methyl-5-isoquinolinesulfonyl)hexahydro-1H-1,4-diazepine]
Table 4, compound at 4.00 µg/mℓ, control 38991
  content of p24 protein, Day 4: 16416 pg/mL
Table 4, compound at 4.00 µg/mℓ, control 58304.5
  content of p24 protein, Day 2: 25557 pg/mL

## CCCCCCOc1nccc2c(S(=O)(=O)N3CCCNCC3)cccc12 [Example 28, 1-(1-Hexyloxy-5-isoquinolinesulfonyl)hexahydro-1H-1,4-diazepine]
[1]
  content of p24 protein, Day 4: 69877 pg/mL
[2]
  content of p24 protein, Day 2: 156250 pg/mL

## Cc1cncc2cccc(S(=O)(=O)N3CCNCC3)c12 [Example 29, 1-(4-Methyl-5-isoquinolinesulfonyl)piperazine]
Table 2, compound at 0.32 µg/mℓ
  content of p24 protein, Day 0: 0 pg/m
Table 2, compound at 0.32 µg/mℓ, control 46732
  content of p24 protein, Day 2: 69877 pg/m
Table 2, compound at 0.32 µg/mℓ, control 104484
  content of p24 protein, Day 4: 69877 pg/m

## Cc1cnc(O)c2cccc(S(=O)(=O)N3CCCNC(C)C3)c12 (stereo not shown) [Example 36, 1-(1-Hydroxy-4-methyl-5-isoquinolinesulfonyl)-3-methylhexahydro-1H-1,4-diazepine·monohydrochloride]
Table 5, compound at 3.20 µg/mℓ, control 349386
  content of p24 protein, Day 4: 82082 pg/mL
Table 5, compound at 3.20 µg/mℓ, control 435119
  content of p24 protein, Day 2: 104484 pg/mL

## CNc1ncc(C)c2c(S(=O)(=O)N3CCCNCC3)cccc12 [Example 41, 1-(4-Methyl-1-N-methylamino-5-isoquinolinesulfonyl)hexahydro-1H-1,4-diazepine]
Table 2, compound at 0.8 µg/mℓ
  content of p24 protein, Day 0: 0 pg/m
Table 2, compound at 0.8 µg/mℓ, control 46732
  content of p24 protein, Day 2: 82082 pg/m
Table 2, compound at 0.8 µg/mℓ, control 104484
  content of p24 protein, Day 4: 66977 pg/m

## C=CCOc1ncc(C)c2c(S(=O)(=O)N3CCCNCC3)cccc12 [Example 46, 1-(1-Allyloxy-4-methyl-5-isoquinolinesulfonyl)hexahydro-1H-1,4-diazepine]
Table 5, compound at 8.00 µg/mℓ, control 349386
  content of p24 protein, Day 4: 156250 pg/mL
Table 5, compound at 8.00 µg/mℓ, control 435119
  content of p24 protein, Day 2: 233662 pg/mL

## Cc1cnc(OCc2c(F)c(F)c(F)c(F)c2F)c2cccc(S(=O)(=O)N3CCCNCC3)c12 [Example 48, 1-(4-Methyl-1-pentafluorophenylmethyloxy-5-isoquinolinesulfonyl)hexahydro-1H-1,4-diazepine]
[1]
  content of p24 protein, Day 4: 297434 pg/mL
[2]
  content of p24 protein, Day 2: 82082 pg/mL

## Cc1cnc(O)c2cccc(S(=O)(=O)N3CCCNCC3C)c12 (stereo not shown) [Example 51, 1-(1-Hydroxy-4-methyl-5-isoquinolinesulfonyl)2-methylhexahydro-1H-1,4-diazepine·monohydrochloride]
Table 1, compound at 10 µg/m
  content of p24 protein, Day 1: 641752 pg/mL
  content of p24 protein, Day 5: 566963 pg/mL
Table 1, compound at 10 µg/m, control 881594
  content of p24 protein, Day 2: 624989 pg/mL

## CCCCCCOc1ncc(C)c2c(S(=O)(=O)N3CCCNCC3C)cccc12 (stereo not shown) [Example 53, 1-(1-n-Hexyloxy-4-methyl-5-isoquinolinesulfonyl)2-methylhexahydro-1H-1,4-diazepine]
Table 5, compound at 40.0 µg/mℓ, control 349386
  content of p24 protein, Day 4: 233662 pg/mL
Table 5, compound at 40.0 µg/mℓ, control 435119
  content of p24 protein, Day 2: 94822 pg/mL

## O=S(=O)(c1cccc2cncc(F)c12)N1CCCNCC1 [Example 55, 1-(4-Fluoro-5-isoquinolinesulfonyl)hexahydro-1H-1,4-diazepine]
Table 3, compound at 4 µg/mℓ, control 82079
  content of p24 protein, Day 4: 59487 pg/mL
Table 3, compound at 4 µg/mℓ, control 104484
  content of p24 protein, Day 2: 59487 pg/mL

## Cc1cncc2c(S(=O)(=O)N3CCCNCC3)cccc12 [Example 66, 1-(4-Methyl-8-isoquinolinesulfonyl)hexahydro-1H-1,4-diazepine]
Table 4, compound at 200 µg/mℓ, control 38991
  content of p24 protein, Day 4: 20897 pg/mL
Table 4, compound at 200 µg/mℓ, control 58304.5
  content of p24 protein, Day 2: 25557 pg/mL

Source: patent publication EP1074545A1, “ISOQUINOLINESULFONAMIDE DERIVATIVES AND DRUGS CONTAINING THE SAME AS THE ACTIVE INGREDIENT” (Hidaka, Hiroyoshi, priority 1998, dated 1999)
